Measured values as given in patent publication US20130011493A1, “PLANT DISEASE CONTROLLING COMPOSITION AND METHOD FOR CONTROLLING PLANT DISEASE” (SUMITOMO CHEMICAL COMPANY, LIMITED, priority 2010, published 2013).

Test system: gray mold fungus (Botrytis cinerea)
Experiment: cucumber leaf disk preventive test against gray mold fungus
Format: in vivo
Conditions: 15° C., four days
Description: To a SUS beaker are added 30 parts of the present compound (racemate), 5 parts of Soprophor FLK (polyoxyethylene tristyrylphenyl ether phosphate, produced by Rhodia Nicca Ltd.), 65 parts of ion-exchange water and 150 parts of glass beads (1.0 mm diameter). The mixture is subjected to grinding at a velocity of 1000 rpm with cooling to 10° C., and thereafter the glass beads are separated, so as to obtain a flowable formulation comprising the present compound (racemate).
True leaf of cucumber is punched out with cork borer to 13 mm in diameter to prepare a leaf disk. In 24 well microwell plate that is dispensed with 1 ml 0.8% water agar, the leaf disk is placed such that the upper side of the leaf is in an upward direction. […]
After confirming that the testing medical solution is dried, conidium of gray mold fungus (Botrytis cinerea) is suspended into potato dextrose broth (DIFCO) in a density of about 10^5 conidium/mL and is then subjected to a spray inoculation. After leaving to stand the leaf disk in a growth chamber set up at 15° C. for four days, an onset area on the leaf is measured and then calculated an onset area rate (hereinafter, referred to as an onset area rate of treated group). […]
A preventive value is calculated from the above onset area rate of treated group and the onset area rate of non-treated group by the following equation: […]

Substance: copper hydrochloride
- preventive value (%) (copper hydrochloride alone 0.5 ppm): 10%
- preventive value (%) (copper hydrochloride alone 5.0 ppm): 15%
